# From patent publication US20230293629A1, “METHODS FOR ATTENUATING RELEASE OF INFLAMMATORY MEDIATORS AND PEPTIDES USEFUL THEREIN” (BIOMARCK PHARMACEUTICALS LTD., priority 2006, published 2023)
# Where a SMILES comes first, the peptide text is derived from it. Where no end group is shown, it is not given here. The star is where a group is joined. Myristoyl = CCCCCCCCCCCCCC(=O)*
# Experiments:
# [1] = test system: LPS-induced lung inflammation; experiment: In vivo LPS-induced lung inflammation, BAL analysis; set-up: species or system mice; conditions: for Hb / MPO / LDH / Total Protein: BAL fluid; for Inhibition of neutrophil migration: relative to PBS/LPS treatment
# Protocol: This example was performed essentially according to methods described by Cox, G, Crossley, J., and Xing, Z.; Macrophage engulfment of apoptotic neutrophils contributes to the resolution of acute pulmonary inflammation in vivo; Am. J. Respir. Cell Mol. Biol. 12:232-237, 1995; Hirano S., Quantitative time-course profiles of bronchoalveolar lavage cells following intratracheal instillation of lipopolysaccharide in mice, Ind. Health 35:353-358, 1997; and Ulich T R, Watson L R, Yin S M, Guo K Z, Wang P, Thang H, and del Castillo, J. Am. J. Pathol. 138:1485-1496, 1991.
# Thus, six to seven week old CD1 female mice weighing 15-20 grams were obtained from Charles River laboratories and housed in groups of 5 mice per cage. The animals received standard rodent diet and filtered water ad libitum. The animals were housed under NIH prescribed guidelines at standard temperature (64° to 79° F.) and relative humidity of 30 to 70%.
# Five treatment groups of mice, with 5 animals in each group, were treated either with PBS followed by PBS, with PBS followed by LPS, with (myristoylated) MANS peptide followed by LPS, with acetylated peptide of SEQ ID NO: 1, followed by LPS, or with acetylated peptide of SEQ ID NO: 106, followed by LPS.
# Intranasal peptide instillation pre-treatment: A peptide of the invention to be evaluated in vivo for its ability to inhibit or reduce LPS-induced lung inflammation was dissolved in PBS at a concentration of 1 mM. Animals, anesthetized with 0.8% isofluorane by inhalation, were pretreated with 2×10 μL intranasal bolus of the peptide solution into one nostril 30 minutes prior to subsequent instillation with LPS.
# Intranasal LPS instillation: Lipopolysaccharide (LPS) Endotoxin (Escherichia coli Serotype 011:B4 derived endotoxin; Sigma, St Louis, MO; see Sigma product information sheet L4130 titled Lipopolysaccharides from Escherichia coli 011:B4) was dissolved into phosphate buffered saline (PBS) at 2,500 μg/mL. To expose animals to endotoxin, a 10 μL intranasal bolus of 2,500 μg/ml endotoxin solution was administered to animals which had been anesthetized with 0.8% isofluorane by inhalation. The 10 μL bolus was applied into one nostril. Animals were monitored for labored breathing, lethargy, and decreased water/food intake following the endotoxin instillations.
# Bronchoalveolar Lavage (BAL): Six hours after the last instillation, the animals were anesthetized (90 mg/kg Nembutal) and sacrificed by exsanguination. The lung was serially lavaged 2 times with 1.0 mL aliquots of PBS. The collected BAL fluid was centrifuged to remove the cells for subsequent counting and differential analysis. Recovered lavage fluid was used for analysis of total protein, myeloperoxidase (MPO), LDH, and hemoglobin.
# Analysis: Aliquots of the BAL fluid were used immediately to assay for the levels of LDH, total protein, or hemoglobin using the COBAS Fara analyzer (COBAS FARA II automated analyzer; Roche Diagnostic Systems Inc., Montclair, NJ). An aliquot of BAL fluid was frozen at −80° C. for subsequent quantitation of myeloperoxidase (MPO) with a mouse-specific ELISA assay (Cell Sciences, Inc., Canton, Mass). BAL data were analyzed by standard techniques to examine differences between the control and treatment groups.
# [2] = test system: human neutrophils; experiment: PMA-stimulated MPO release from isolated human neutrophils (TMB assay); format: cell-based; conditions: for % Inhibition MPO: 100 μM test peptide, two hour incubation with 100 nM PMA, human neutrophils; for increase of human neutrophil MPO release versus control level: 100 nM PMA; for MPO activity relative to control as 100%: 30 min after 100 nM PMA, PMA control reference about 275%
# Source text: Human neutrophil isolation—These studies were approved by the human studies Institutional Review Board (IRB). Human neutrophils were isolated as previously described (see Takashi S, OkuboY, Horie S. Contribution of CD54 to human eosinophil and neutrophil superoxide production. J Appl Physiol 2001; 91:613-622) with slight modifications. Briefly, heparinized venous blood was obtained from normal healthy volunteers, diluted with RPMI-1640 (Cellgro; Mediatech, Inc., Herndon, VA) at a ratio of 1:1, layered onto a Histopaque (density, 1.077 g/ml; Sigma-Aldrich Co., St. Louis, MO) and centrifuged at 400 g for 20 min at 4° C. The supernatant and mononuclear cells at the interface were carefully removed, and erythrocytes in the sediment were lysed in chilled distilled water. Isolated granulocytes were washed twice with Hanks' balanced salts solution (HBSS) and resuspended in HBSS on ice.
# Measurement of released neutrophil MPO activity—For measurement of MPO release, purified human neutrophils suspended in HBSS were aliquoted at 4×10^6 cells/ml in 15 ml tubes and preincubated with either 50 or 100 μM of MANS, RNS, or one of the peptides of invention for 10 min at 37° C. The cells then were stimulated with 100 nM phorbol 12-myristate 13-acetate (PMA) for up to 3 hrs. A control reference (PMA control reference) was established using purified human neutrophils suspended in HBSS aliquoted at 4×10^6 cells/ml in 15 mL tubes and stimulated with 100 nM phorbol 12-myristate 13-acetate (PMA) in the absence of a test peptide for the same time periods. The reaction was terminated by placing the tubes on ice and centrifugation at 400 g for 5 min at 4° C.
# MPO activity in the cell supernatant was assayed using tetramethylbenzidine (TMB) based on a previously established technique (Abdel-Latif D, Steward M, Macdonald D L, Francis G A., Dinauer M C, Lacy P. Rac2 is critical for neutrophil primary granule exocytosis. Blood 2004; 104:832-839). Briefly, 100 μL of TMB substrate solution was added to 50 μL of cell supernatants or standard human MPO (EMD Biosciences, Inc., San Diego, CA) in a 96-well microplate followed by incubation at room temperature for 15 min. The reaction was terminated by addition of 50 μL of 1M […] and absorbance was read at 450 nm in a spectrophotometric microplate reader (VERSA max, Molecular Devices, Sunnyvale, CA).
# The data presented in the table below represents 100 μM concentration of test peptides and a two hour incubation with 100 nM PMA.
# [3] = Qualitative solubility of peptides in 0.5 N saline, pH 6.5
# [4] = test system: isolated human neutrophils; experiment: MPO secretion from isolated human neutrophils stimulated with PMA + 8-Br-cGMP (FIG. 7, 8, 9); format: cell-based; conditions: for MPO secretion: FIG. 7, 100 nM PMA and 10 μM 8-Br-cGMP
compound,measurement,setting,value
Ac-GAQFSKTAAK [Ac-GAQFSKTAAK],Hb,"[1]; Table 6 experiment, PBS/LPS 0.00, PBS/PBS 0.00",0.00 g/dL
same,MPO,"[1]; Table 6 experiment, PBS/LPS 7.19, PBS/PBS 4.88",1.50 ng/mL
same,LDH,"[1]; Table 6 experiment, PBS/LPS 78.20, PBS/PBS 61.80",106.86 units/L
same,Total Protein,"[1]; Table 6 experiment, PBS/LPS 116.4, PBS/PBS 113.8",131.0 µg/mL
same,% Neutrophils of total counts,"[1]; Table 6 experiment, PBS/LPS 24.4, PBS/PBS 21.3",3.0%
same,Total Neutrophil counts,"[1]; Table 6 experiment, PBS/LPS 80,077, PBS/PBS 66,521","9,170"
same,Total Cell Counts,"[1]; Table 6 experiment, PBS/LPS 327,680, PBS/PBS 312,620","305,688"
same,Inhibition of neutrophil migration,[1],88.5%
same,% Inhibition MPO,[2],25.3%
same,solubility,[3],> 100 mg/mL
Ac-GAQFSKTAAKGEAAAERPGEAAVA,Hb,"[1]; Table 5 experiment, PBS/LPS 0.01, PBS/PBS 0.00",0.01 g/dL
same,MPO,"[1]; Table 5 experiment, PBS/LPS 37.90, PBS/PBS 5.45",30.79 ng/mL
same,LDH,"[1]; Table 5 experiment, PBS/LPS 89.9, PBS/PBS 84.0",74.5 units/L
same,Total Protein,"[1]; Table 5 experiment, PBS/LPS 153.4, PBS/PBS 230.6",182.75 µg/mL
same,% Neutrophils of total counts,"[1]; Table 5 experiment, PBS/LPS 65.5, PBS/PBS 22.1",41.47%
same,Total Neutrophil counts,"[1]; Table 5 experiment, PBS/LPS 164,578, PBS/PBS 19,770","105,499"
same,Total Cell Counts,"[1]; Table 5 experiment, PBS/LPS 251,360, PBS/PBS 89,440","254,400"
same,Inhibition of neutrophil migration,[1],35.9%
same,solubility,[3],> 250 mg/mL
"CCCCCCCCCCCCCC(=O)O[C@@H]1[C@@H](C)[C@@]2(O)[C@@H](C=C(CO)C[C@]3(O)C(=O)C(C)=C[C@@H]23)[C@@H]2C(C)(C)[C@]12OC(C)=O [PMA, phorbol 12-myristate 13-acetate]",MPO secretion from LPS-stimulated human neutrophils,"[4]; FIG. 8, PMA alone, enhanced concentration-dependently by co-stimulation with 8-Br-cGMP",small increase
same,increase of human neutrophil MPO release versus control level,[2]; 30 min,approximately threefold
same,increase of human neutrophil MPO release versus control level,[2]; after 3 hrs,5-6 fold
CCCCCCCCCCCCCC(=O)NCC(=O)N[C@@H](C)C(=O)N[C@@H](CCC(N)=O)C(=O)N[C@@H](Cc1ccccc1)C(=O)N[C@@H](CO)C(=O)N[C@@H](CCCCN)C(=O)N[C@H](C(=O)N[C@@H](C)C(=O)N[C@@H](C)C(=O)N[C@@H](CCCCN)C(=O)NCC(=O)N[C@@H](CCC(=O)O)C(=O)N[C@@H](C)C(=O)N[C@@H](C)C(=O)N[C@@H](C)C(=O)N[C@@H](CCC(=O)O)C(=O)N[C@@H](CCCNC(=N)N)C(=O)N1CCC[C@H]1C(=O)NCC(=O)N[C@@H](CCC(=O)O)C(=O)N[C@@H](C)C(=O)N[C@@H](C)C(=O)N[C@H](C(=O)N[C@@H](C)C(=O)O)C(C)C)[C@@H](C)O [MANS] (Myristoyl-GAQFSKTAAKGEAAAERPGEAAVA-OH; C-terminus assumed),Total cells counted,"[1]; BAL 6 h after intranasal LPS, 2×10 μL 1 mM peptide intranasal 30 min before LPS, PBS/LPS 264,200, PBS/PBS 157,020","208,457"
same,Hb,"[1]; Table 4 experiment, PBS/LPS 0.19, PBS/PBS 0.00",0.05 g/dL
same,MPO,"[1]; Table 4 experiment, PBS/LPS 28.98, PBS/PBS 3.28",9.49 ng/mL
same,LDH,"[1]; Table 4 experiment, PBS/LPS 60.40, PBS/PBS 68.20",68.57 units/L
same,Total Protein,"[1]; Table 4 experiment, PBS/LPS 272.40, PBS/PBS 125.60",175.00 µg/mL
same,% Neutrophils of total cells,"[1]; Table 4 experiment, PBS/LPS 41.7, PBS/PBS 18.7",30.9%
same,Total neutrophils counted,"[1]; Table 4 experiment, PBS/LPS 110,061, PBS/PBS 29317","64,481"
same,Inhibition of neutrophil migration,[1],41.4%
same,MPO secretion,[4]; 10 μM peptide,slight decrease
same,MPO secretion,[4]; 100 μM peptide,decreased secretion of MPO to control levels
same,MPO activity relative to control as 100%,[2]; 50 μM,about 275%
same,reduction in MPO release versus the PMA control reference,"[2]; 50 μM, 1 hr",about 15%
same,MPO activity % of control,"[2]; 50 μM, 1 hr, PMA control reference about 340%",about 290%
same,reduction of MPO release versus the PMA control reference,"[2]; 50 μM, 2 hours",approximately 30%
same,MPO activity % of control,"[2]; 50 μM, 2 hours, PMA control reference about 540%",about 375%
same,reduction of MPO release versus the PMA control reference,"[2]; 50 μM, 3 hours",approximately 33%
same,MPO activity % of control,"[2]; 50 μM, 3 hours, PMA control reference about 560%",about 375%
same,% Inhibition MPO,[2],31.2%
same,MPO activity relative to control as 100%,[2]; 100 μM,about 305%
same,reduction in MPO release versus the PMA control reference,"[2]; 100 μM, 1 hr",about 25%
same,MPO activity % of control,"[2]; 100 μM, 1 hr, PMA control reference about 340%",about 260%
same,reduction of MPO release versus the PMA control reference,"[2]; 100 μM, 2 hours",approximately 45%
same,MPO activity % of control,"[2]; 100 μM, 2 hours, PMA control reference about 540%",about 295%
same,reduction of MPO release versus the PMA control reference,"[2]; 100 μM, 3 hours",approximately 40%
same,MPO activity % of control,"[2]; 100 μM, 3 hours, PMA control reference about 560%",about 320%
same,effect on PMA-induced MPO release,"[2]; 50 and 100 μM, 30 min",no detected effect
"CCCCCCCCCCCCCC(=O)NCC(=O)N[C@H](C(=O)N[C@@H](C)C(=O)N1CCC[C@H]1C(=O)N[C@@H](C)C(=O)N[C@@H](C)C(=O)N[C@@H](CCC(=O)O)C(=O)NCC(=O)N[C@@H](C)C(=O)NCC(=O)N[C@@H](C)C(=O)N[C@@H](CCC(=O)O)C(=O)N[C@H](C(=O)N[C@@H](CCCCN)C(=O)N[C@@H](CCCNC(=N)N)C(=O)N[C@@H](C)C(=O)N[C@@H](CO)C(=O)N[C@@H](C)C(=O)N[C@@H](CCC(=O)O)C(=O)N[C@@H](C)C(=O)N[C@@H](CCCCN)C(=O)N[C@@H](CCC(N)=O)C(=O)N[C@@H](C)C(=O)N[C@@H](Cc1ccccc1)C(=O)O)C(C)C)[C@@H](C)O [RNS, reference compound] (Myristoyl-GTAPAAEGAGAEVKRASAEAKQAF-OH; C-terminus assumed)",MPO secretion,[4]; 10 or 100 μM peptide,no effect
same,% Inhibition MPO,[2],0%
same,effect on PMA-induced MPO release,[2]; any of the time points or concentrations tested,did not affect
same,solubility,[3],> 15 mg/mL
